# Data from patent publication US8377884B2, “Variants of C-type natriuretic peptides” (Biomarin Pharmaceutical Inc., priority 2007, dated 2013).
# Like-named read-outs stand apart in the source and are kept apart here. Bridge positions count the residues as written; N and C are the ends. Peptide text beside a SMILES is read from it. * marks the point of attachment. Heptanoyl = CCCCCCC(=O)*
# Legend:
# [1] = molecular target: neutral endopeptidase (NEP) (Homo sapiens, UniProt P08473); assay: in vitro; conditions: human, pH 7
# Method: To determine the effects of amino acid substitutions, amino acid extensions, backbone modifications, side chain modifications and PEGylation on the susceptibility of CNP variants to neutral endopeptidase (NEP) cleavage, peptide cleavage assays were carried out using an in vitro assay that monitored disappearance of the non-cleaved CNP variant.
# Recombinant human NEP (1 ug/mL final concentration) was added to 100 uM CNP variant diluted in 0.1 M Tris, pH 7. The reaction mixture was incubated at 37° C. for various periods of time, and the reaction was quenched with EDTA (10 mM final) followed by heat denaturation. The reaction mixture was reduced and then the reaction products were analyzed using HPLC and mass spectroscopy. The half-life of the CNP variant was calculated based on the disappearance of intact CNP variant over time.
# NPR-B = molecular target: T1, NPR-B (Mus musculus, UniProt Q6VVW5); assay: Stimulation of cGMP production in NIH3T3 cells; format: cell-based, Murine; conditions: for cGMP response relative to 1 uM CNP22 (%) at 0.01 µM: read-out: cGMP Response rel. to 1 uM CNP22, 10 nM; for cGMP response relative to 1 uM CNP22 (%) at 1 µM: read-out: cGMP Response rel. to 1 uM CNP22, 1 uM
# T1 construct: Murine NIH3T3 cells express endogenously the CNP signaling receptor, NPR-B; endogenous in cells; host or cells: NIH3T3 (murine fibroblasts)
# T1 sequence (Q6VVW5 17-1047): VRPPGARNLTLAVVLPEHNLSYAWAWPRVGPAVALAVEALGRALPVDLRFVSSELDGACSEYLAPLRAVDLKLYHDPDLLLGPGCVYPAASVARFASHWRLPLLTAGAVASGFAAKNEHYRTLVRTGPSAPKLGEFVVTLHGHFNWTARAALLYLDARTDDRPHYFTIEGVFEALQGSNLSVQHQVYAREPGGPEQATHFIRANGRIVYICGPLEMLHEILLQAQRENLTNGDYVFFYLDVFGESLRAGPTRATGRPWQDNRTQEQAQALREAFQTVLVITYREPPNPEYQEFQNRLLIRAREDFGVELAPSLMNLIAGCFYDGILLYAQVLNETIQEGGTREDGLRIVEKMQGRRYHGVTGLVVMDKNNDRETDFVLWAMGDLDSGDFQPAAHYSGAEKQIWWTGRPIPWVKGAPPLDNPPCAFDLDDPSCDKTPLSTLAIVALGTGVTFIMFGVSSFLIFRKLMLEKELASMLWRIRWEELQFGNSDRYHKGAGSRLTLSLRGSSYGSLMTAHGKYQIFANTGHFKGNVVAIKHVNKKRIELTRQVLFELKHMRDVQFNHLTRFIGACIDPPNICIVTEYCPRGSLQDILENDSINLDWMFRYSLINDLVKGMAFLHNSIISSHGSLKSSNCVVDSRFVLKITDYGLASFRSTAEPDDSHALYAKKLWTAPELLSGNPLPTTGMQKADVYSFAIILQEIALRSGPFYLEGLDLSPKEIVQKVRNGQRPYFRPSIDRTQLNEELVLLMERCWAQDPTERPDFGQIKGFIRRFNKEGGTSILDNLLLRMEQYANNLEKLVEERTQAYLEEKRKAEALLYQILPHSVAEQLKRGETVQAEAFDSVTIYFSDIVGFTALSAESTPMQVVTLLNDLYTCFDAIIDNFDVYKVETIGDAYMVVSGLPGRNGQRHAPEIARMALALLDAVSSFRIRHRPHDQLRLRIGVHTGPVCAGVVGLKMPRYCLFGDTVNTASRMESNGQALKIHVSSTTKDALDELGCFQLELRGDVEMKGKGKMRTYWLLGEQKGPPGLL
# [2] = NIH3T3 cells, 10 nM natriuretic peptide, normalized to cell number and cGMP production with 1 uM wtCNP22
# [3] = NIH3T3 cells, 1 uM natriuretic peptide, normalized to cell number and cGMP production with 1 uM wtCNP22
# neutral endopeptidase (NEP), sequence (P08473 whole entry): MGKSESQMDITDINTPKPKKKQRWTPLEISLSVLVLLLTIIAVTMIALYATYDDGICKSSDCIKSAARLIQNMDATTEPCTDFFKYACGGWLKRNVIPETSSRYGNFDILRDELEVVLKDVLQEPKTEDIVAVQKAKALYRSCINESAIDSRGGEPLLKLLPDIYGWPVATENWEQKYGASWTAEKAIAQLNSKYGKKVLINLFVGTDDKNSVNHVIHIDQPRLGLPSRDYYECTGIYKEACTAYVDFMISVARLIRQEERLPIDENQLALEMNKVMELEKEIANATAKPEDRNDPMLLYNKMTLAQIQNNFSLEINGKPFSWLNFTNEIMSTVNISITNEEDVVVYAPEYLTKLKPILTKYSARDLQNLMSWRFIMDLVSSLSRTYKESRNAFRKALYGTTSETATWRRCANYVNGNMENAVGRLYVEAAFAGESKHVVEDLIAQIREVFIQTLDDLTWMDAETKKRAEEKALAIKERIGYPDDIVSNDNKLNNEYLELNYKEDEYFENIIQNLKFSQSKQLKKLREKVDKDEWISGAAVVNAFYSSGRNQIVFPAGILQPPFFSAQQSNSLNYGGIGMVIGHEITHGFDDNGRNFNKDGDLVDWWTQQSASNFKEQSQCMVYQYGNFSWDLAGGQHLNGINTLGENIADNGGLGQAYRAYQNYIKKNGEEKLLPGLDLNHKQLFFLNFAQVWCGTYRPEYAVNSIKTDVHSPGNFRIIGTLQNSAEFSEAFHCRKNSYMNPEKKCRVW
SMILES,half-life at 100 uM [1] [min],cGMP response relative to 1 uM CNP22 (%) at 0.01 µM (NPR-B; [2]) [%],cGMP response relative to 1 uM CNP22 (%) at 1 µM (NPR-B; [3]) [%],"cGMP response relative to 1 uM CNP22 (%) at 0.01 µM (NPR-B; NIH3T3, […]) [%]","cGMP response relative to 1 uM CNP22 (%) at 1 µM (NPR-B; NIH3T3, […]) [%]"
CC[C@H](C)[C@@H]1NC(=O)[C@H](CCCNC(=N)N)NC(=O)[C@H](CC(=O)O)NC(=O)[C@H](CC(C)C)NC(=O)[C@H](CCCCN)NC(=O)[C@H](CC(C)C)NC(=O)CNC(=O)[C@H](Cc2ccccc2)NC(=O)[C@@H](NC(=O)CNC(=O)[C@H](CCCCN)NC(=O)[C@H](CO)NC(=O)[C@H](CC(C)C)NC(=O)CNC(=O)[C@H](CCCNC(=N)N)NC(=O)[C@H](C)NC(=O)[C@H](Cc2c[nH]c3ccccc23)NC(=O)[C@H](C)NC(=O)[C@H](C)NC(=O)[C@H](CCCNC(=N)N)NC(=O)[C@H](CO)NC(=O)[C@H](CCCCN)NC(=O)[C@@H](NC(=O)[C@H](CC(=O)O)NC(=O)[C@@H](NC(=O)[C@H](CCCNC(=N)N)NC(=O)[C@H](CC(C)C)NC(=O)[C@@H](N)CC(=O)O)C(C)C)[C@@H](C)O)CSSC[C@@H](C(=O)O)NC(=O)CNC(=O)[C@H](CC(C)C)NC(=O)CNC(=O)[C@H](CO)NC(=O)[C@H](CCSC)NC(=O)[C@H](CO)NC(=O)CNC1=O [CC] (H-DLRVDTKSRAAWARGLSKGCFGLKLDRIGSMSGLGC-OH; disulfide 20-36 (inferred); N-terminus and C-terminus assumed),> 160,34,101,–,–
CC[C@H](C)[C@@H]1NC(=O)[C@H](CCCNC(=N)N)NC(=O)[C@H](CC(=O)O)NC(=O)[C@H](CC(C)C)NC(=O)[C@H](CCCCN)NC(=O)[C@H](CC(C)C)NC(=O)CNC(=O)[C@H](Cc2ccccc2)NC(=O)[C@@H](NC(=O)CNC(=O)[C@H](CCCCN)NC(=O)[C@H](CO)NC(=O)[C@H](CC(C)C)NC(=O)CNC(=O)CCOCCOCCOCCOCCOCCOCCOCCOCCOCCOCCOCCOC)CSSC[C@@H](C(=O)O)NC(=O)CNC(=O)[C@H](CC(C)C)NC(=O)CNC(=O)[C@H](CO)NC(=O)[C@H](CCSC)NC(=O)[C@H](CO)NC(=O)CNC1=O [PEO12-CNP22],≥ 160,12 ± 7,57 ± 18,–,–
CC[C@H](C)[C@@H]1NC(=O)[C@H](CCCNC(=N)N)NC(=O)[C@H](CC(=O)O)NC(=O)[C@H](CC(C)C)NC(=O)[C@H](CCCCN)NC(=O)[C@H](CC(C)C)N(C)C(=O)CNC(=O)[C@H](Cc2ccccc2)NC(=O)[C@@H](NC(=O)CNC(=O)[C@H](CCCCN)NC(=O)[C@H](CO)NC(=O)[C@H](CC(C)C)NC(=O)CN)CSSC[C@@H](C(=O)O)NC(=O)CNC(=O)[C@H](CC(C)C)N(C)C(=O)CNC(=O)[C@H](CO)NC(=O)[C@H](CCSC)NC(=O)[C@H](CO)NC(=O)CNC1=O [K],80,–,–,1,1
CCCCCCC(=O)N[C@@H](CCC(=O)O)C(=O)N[C@@H](CC(C)C)C(=O)N[C@@H](CO)C(=O)N[C@@H](CCCCN)C(=O)NCC(=O)N[C@H]1CSSC[C@@H](C(=O)O)NC(=O)CNC(=O)[C@H](CC(C)C)NC(=O)CNC(=O)[C@H](CO)NC(=O)[C@H](CCSC)NC(=O)[C@H](CO)NC(=O)CNC(=O)[C@H]([C@@H](C)CC)NC(=O)[C@H](CCCNC(=N)N)NC(=O)[C@H](CC(=O)O)NC(=O)[C@H](CC(C)C)NC(=O)[C@H](CCCCN)NC(=O)[C@H](CC(C)C)NC(=O)CNC(=O)[C@H](Cc2ccccc2)NC1=O [BB] (Heptanoyl-ELSKGCFGLKLDRIGSMSGLGC-OH; disulfide 6-22 (inferred); C-terminus assumed),45 to 65,–,–,32 ± 4,84 ± 19
CC[C@H](C)[C@@H]1NC(=O)[C@H](CCCNC(=N)N)NC(=O)[C@H](CC(=O)O)NC(=O)[C@H](CC(C)C)NC(=O)[C@H](CCCCN)NC(=O)[C@H](CC(C)C)NC(=O)CNC(=O)[C@H](Cc2ccccc2)NC(=O)[C@@H](NC(=O)CNC(=O)[C@H](CCCNC(=N)N)NC(=O)[C@H](CO)NC(=O)[C@H](CC(C)C)NC(=O)CNC(=O)[C@@H](N)CCCNC(=N)N)CSSC[C@@H](C(=O)O)NC(=O)CNC(=O)[C@H](CC(C)C)NC(=O)CNC(=O)[C@H](CO)NC(=O)[C@H](CCSC)NC(=O)[C@H](CO)NC(=O)CNC1=O [AZ] (H-RGLSRGCFGLKLDRIGSMSGLGC-OH; disulfide 7-23 (inferred); N-terminus and C-terminus assumed),≥ 160,54 ± 11,106 ± 15,–,–
CC[C@H](C)[C@@H]1NC(=O)[C@H](CCCNC(=N)N)NC(=O)[C@H](CC(=O)O)NC(=O)[C@H](CC(C)C)NC(=O)[C@H](CCCCN)NC(=O)[C@H](CC(C)C)NC(=O)CNC(=O)[C@H](Cc2ccccc2)NC(=O)[C@@H](NC(=O)CNC(=O)[C@H](CCCNC(=N)N)NC(=O)[C@H](CO)NC(=O)[C@H](CC(C)C)NC(=O)CNC(=O)[C@H](CO)NC(=O)[C@H](CO)NC(=O)[C@H](CC(N)=O)NC(=O)[C@H](C)NC(=O)CN)CSSC[C@@H](C(=O)O)NC(=O)CNC(=O)[C@H](CC(C)C)NC(=O)CNC(=O)[C@H](CO)NC(=O)[C@H](CCSC)NC(=O)[C@H](CO)NC(=O)CNC1=O [CG] (H-GANSSGLSRGCFGLKLDRIGSMSGLGC-OH; disulfide 11-27 (inferred); N-terminus and C-terminus assumed),95,27 ± 1,88 ± 1,–,–
CC[C@H](C)[C@@H]1NC(=O)[C@H](CCCNC(=N)N)NC(=O)[C@H](CC(=O)O)NC(=O)[C@H](CC(C)C)NC(=O)[C@H](CCCCN)NC(=O)[C@H](CC(C)C)NC(=O)CNC(=O)[C@H](Cc2ccccc2)NC(=O)[C@@H](NC(=O)CNC(=O)[C@H](CCCCN)NC(=O)[C@H](CO)NC(=O)[C@H](CC(C)C)NC(=O)CNC(=O)CCCC(=O)NCCOCCOCCOCCOCCC(=O)NC(COCCC(=O)NCCOCCOCCOCCOCCOCCOCCOCCOCCOCCOCCOCCOC)(COCCC(=O)NCCOCCOCCOCCOCCOCCOCCOCCOCCOCCOCCOCCOC)COCCC(=O)NCCOCCOCCOCCOCCOCCOCCOCCOCCOCCOCCOCCOC)CSSC[C@@H](C(=O)O)NC(=O)CNC(=O)[C@H](CC(C)C)NC(=O)CNC(=O)[C@H](CO)NC(=O)[C@H](CCSC)NC(=O)[C@H](CO)NC(=O)CNC1=O [PEO4-(PEO12)3 (branched)-CNP22],> 160,17 ± 1,52 ± 6,–,–
CC[C@H](C)[C@@H]1NC(=O)[C@H](CCCNC(=N)N)NC(=O)[C@H](CC(=O)O)NC(=O)[C@H](CC(C)C)NC(=O)[C@H](CCCCN)NC(=O)[C@H](CC(C)C)NC(=O)CNC(=O)[C@H](Cc2ccccc2)NC(=O)[C@@H](NC(=O)CNC(=O)[C@H](CCCNC(=N)N)NC(=O)[C@H](CO)NC(=O)[C@H](CC(C)C)NC(=O)CNC(=O)[C@H](CCCNC(=N)N)NC(=O)[C@@H](N)CCC(=O)O)CSSC[C@@H](C(=O)O)NC(=O)CNC(=O)[C@H](CC(C)C)NC(=O)CNC(=O)[C@H](CO)NC(=O)[C@H](CCSC)NC(=O)[C@H](CO)NC(=O)CNC1=O [BA] (H-ERGLSRGCFGLKLDRIGSMSGLGC-OH; disulfide 8-24 (inferred); N-terminus and C-terminus assumed),90,38 ± 10,113 ± 10,–,–
